Data reported in patent publication US20060008542A1, “Preparation containing a mixture of picrorrhiza and ginkgo for the relief of disease” (priority 2002, published 2006).

test system: not listed separately; experiment: physchem; settings: not given

Structure (SMILES)	logP
CCCCCCCCCCCCCCCCCC(O)CCCCCCCCC (centres unmarked) [10-heptacosanol]	≥ 5
CCCCCCCCCCCCCCCCCCCC(O)CCCCCCCCC (centres unmarked) [10-nonacosanol]	≥ 5
CCCCCCCCCCCCCCCCC(O)CCCCCCCCCCCC (centres unmarked) [13-nonacosanol]	≥ 5
COc1cc(C(C)=O)ccc1O [Apocynin, 4-hydroxy-3-methoxyacetophenone]	1.6
O=c1cc(-c2ccc(O)c(-c3c(O)cc(O)c4c(=O)cc(-c5ccc(O)cc5)oc34)c2)oc2cc(O)cc(O)c12 [amentoflavone]	≥ 5
COc1cc(C(C)=O)ccc1O[C@@H]1O[C@H](CO)[C@@H](O)[C@H](O)[C@H]1O [androsin]	-1.2
OCC1=C[C@@H](O)[C@@H]2C=CO[C@@H](O[C@@H]3O[C@H](CO)[C@@H](O)[C@H](O)[C@H]3O)[C@H]12 [aucubin]	≤ -2
COc1ccc(-c2cc(=O)c3c(O)cc(O)cc3o2)cc1-c1c(O)cc(O)c2c(=O)cc(-c3ccc(O)cc3)oc12 [bilobetin]	≥ 5
OC[C@H]1O[C@@H](O[C@@H]2OC=C[C@H]3[C@H](O)[C@@H]4O[C@]4(CO)[C@@H]23)[C@H](O)[C@@H](O)[C@@H]1O [catalpol]	≤ -2
COc1cc(O)c2c(=O)cc(-c3ccc(OC)c(-c4c(O)cc(O)c5c(=O)cc(-c6ccc(O)cc6)oc45)c3)oc2c1 [ginkgetin]	≥ 5
COc1ccc(-c2cc(=O)c3c(O)cc(O)c(-c4cc(-c5cc(=O)c6c(O)cc(O)cc6o5)ccc4OC)c3o2)cc1 [isoginkgetin]	≥ 5
CCCCCCCCCCCCCCCCCCCCCCCCCCCCC [nonacosane]	≥ 5
CC[C@H](/C=C/[C@@H](C)[C@H]1CC[C@H]2[C@@H]3CC=C4C[C@@H](O)CC[C@]4(C)[C@H]3CC[C@]12C)C(C)C [stigmasterol]	≥ 5
CCCCCCCCCCCCCCCC(=O)OCC(COC(=O)CCCCCCCCCCCCCCC)OC(=O)CCCCCCCCCCCCCCC [tripalmitin]	≥ 5
O=C(/C=C/c1ccc(O)c(O)c1)O[C@H]1[C@@H]2C=CO[C@@H](O[C@@H]3O[C@H](CO)[C@@H](O)[C@H](O)[C@H]3O)[C@@H]2[C@@]2(CO)O[C@@H]12 [verminoside]	≤ -2

test system: neutrophil respiratory burst (PMA-stimulated neutrophils of peripheral blood); experiment: Dihydrorhodamine flow cytometric assay for the effect of plant extracts on neutrophil respiratory burst on peripheral blood; type: cell-based, human; settings: Homo sapiens, Neutrophil; apocynin 300 ug/ml, from calibration curve
Description: 3 Dihydrorhodamine Flow Cytometric Assay for the Effect of Plant Extracts on Neutrophil Respiratory Burst on Peripheral Blood An aliquot (200 μg) of every fraction (obtained by the methods described above) was prepared for assay. The left hand column (Extract number) will be the number used to denote that fraction in subsequent studies and corresponds to the Fraction numbers (“BR0000n”) used above reduced to 1,2, etc., by removal of the “BR00000”. Neutrophils kill organisms they have ingested by exposing them to chemicals known as reactive oxygen species (eg. hydrogen peroxide and hydroxyl ions). These are generated by a process known as the neutrophil respiratory burst. […] Respiratory burst occurs when stimulated neutrophils convert molecular oxygen to oxygen radicals through the activation of NADPH-oxidase. In the dihydrorhodamine (DHR) flow cytometric assay, the respiratory burst is used to produce fluorescent molecules that can be detected by flow cytometry. […] The extent of respiratory burst product can be further quantified using the mean fluorescence intensity of the FL-1 channel (MFI). […] Any background fluorescence (as a further control) is estimated using a tube containing only blood and DHR. […]

Structure (SMILES)	inhibition at 300 µg/mL [%]
COc1cc(C(C)=O)ccc1O [Apocynin, 4-hydroxy-3-methoxyacetophenone]	45

same assay, conditions: Table 4, apocynin alone

Structure (SMILES)	Assay Result
COc1cc(C(C)=O)ccc1O [Apocynin, 4-hydroxy-3-methoxyacetophenone]	48

test system: not listed separately; experiment: log P (Partition Ratio between Octanol/Water); settings: cucurbitacins present in natural Picrorrhiza kurroa
Description: By most polar is meant a component (or Component) having log P of −2 or more negative, where P is the Partition Ratio between Octanol/Water.
The Table immediately below lists the cucurbitacins present in natural Picrorrhiza kurroa together with their log P value.

Structure (SMILES)	log P
CC(=O)OC(C)(C)/C=C/C(=O)[C@](C)(O)[C@H]1[C@H](O)C[C@@]2(C)[C@@H]3CC=C4[C@H](C[C@H](O)C(=O)C4(C)C)[C@]3(C)C(=O)C[C@]12C [cucurbitacin B]	2.5 ± 0.6
CC(C)(O)/C=C/C(=O)[C@](C)(O)[C@H]1[C@H](O)C[C@@]2(C)[C@@H]3CC=C4[C@@H](C[C@H](O)C(=O)C4(C)C)[C@]3(C)C(=O)C[C@]12C [cucurbitacin D]	1.7 ± 0.6
CC(=O)OC(C)(C)/C=C/C(=O)[C@](C)(O)[C@H]1[C@H](O)C[C@@]2(C)[C@@H]3CC=C4[C@@H](C=C(O)C(=O)C4(C)C)[C@]3(C)C(=O)C[C@]12C [cucurbitacin E]	3.4 ± 0.6
CC(C)(O)/C=C/C(=O)[C@](C)(O)[C@H]1[C@H](O)C[C@@]2(C)[C@@H]3CC=C4[C@@H](C[C@H](O)[C@@H](O)C4(C)C)[C@]3(C)C(=O)C[C@]12C [cucurbitacin F]	1.9 ± 0.6
CC(C)(O)/C=C/C(=O)[C@](C)(O)[C@H]1[C@H](O)C[C@@]2(C)[C@@H]3CC=C4[C@@H](C=C(O)C(=O)C4(C)C)[C@]3(C)C(=O)C[C@]12C [cucurbitacin I]	2.5 ± 0.5
CC(C)(O)CCC(=O)[C@](C)(O)[C@H]1[C@H](O)C[C@@]2(C)[C@@H]3CC=C4[C@@H](C[C@H](O)C(=O)C4(C)C)[C@]3(C)C(=O)C[C@]12C [cucurbitacin R]	1.9 ± 0.6
